{"source": "ChEMBL document CHEMBL1201862", "about": "“PubChem BioAssay data set” (2004)", "key": {"[1]": {"molecular_target": "DNA dC->dU-editing enzyme APOBEC-3A (Homo sapiens, UniProt P31941)", "sequence (P31941 whole entry)": "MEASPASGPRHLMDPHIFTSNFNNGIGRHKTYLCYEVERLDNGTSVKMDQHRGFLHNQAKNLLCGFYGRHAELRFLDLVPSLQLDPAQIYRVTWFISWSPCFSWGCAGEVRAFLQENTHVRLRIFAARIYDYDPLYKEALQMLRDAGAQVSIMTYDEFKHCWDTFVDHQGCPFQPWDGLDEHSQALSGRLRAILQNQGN", "experiment": "Dose Response confirmation of small molecule APOBEC3A DNA Deaminase Inhibitors via a fluorescence-based single-stranded DNA deaminase assay. [Related pubchem assays (depositor defined):AID493011, AID493024]", "format": "functional"}, "[2]": {"molecular_target": "DNA dC->dU-editing enzyme APOBEC-3G (Homo sapiens, UniProt Q9HC16)", "sequence (Q9HC16 whole entry)": "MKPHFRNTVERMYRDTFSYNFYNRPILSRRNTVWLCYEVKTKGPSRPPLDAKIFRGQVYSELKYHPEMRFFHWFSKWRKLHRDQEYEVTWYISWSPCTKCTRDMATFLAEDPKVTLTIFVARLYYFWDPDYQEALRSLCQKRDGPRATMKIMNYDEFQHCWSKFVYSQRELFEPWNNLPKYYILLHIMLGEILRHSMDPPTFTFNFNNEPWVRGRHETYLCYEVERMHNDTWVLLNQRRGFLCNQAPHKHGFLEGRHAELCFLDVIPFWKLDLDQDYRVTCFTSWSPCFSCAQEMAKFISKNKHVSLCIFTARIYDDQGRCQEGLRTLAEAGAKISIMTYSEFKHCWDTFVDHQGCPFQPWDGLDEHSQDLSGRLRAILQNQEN", "format": "functional"}, "[3]": {"molecular_target": "T1, CAAX prenyl protease 2 (Saccharomyces cerevisiae S288c, UniProt Q03530)", "T1 sequence (Q03530 whole entry)": "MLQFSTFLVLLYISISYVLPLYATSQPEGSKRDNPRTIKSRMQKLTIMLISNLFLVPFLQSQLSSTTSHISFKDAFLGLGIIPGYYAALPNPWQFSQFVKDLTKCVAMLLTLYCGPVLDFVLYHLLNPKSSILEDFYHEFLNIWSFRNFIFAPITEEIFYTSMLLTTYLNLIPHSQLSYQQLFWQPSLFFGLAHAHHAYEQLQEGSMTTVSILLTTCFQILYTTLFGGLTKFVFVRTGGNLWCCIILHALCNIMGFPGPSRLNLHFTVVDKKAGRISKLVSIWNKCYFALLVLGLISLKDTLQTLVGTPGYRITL", "format": "biochemical"}, "[4]": {"molecular_target": "T2, Coagulation factor XII (Homo sapiens, UniProt P00748)", "T2 sequence (P00748 whole entry)": "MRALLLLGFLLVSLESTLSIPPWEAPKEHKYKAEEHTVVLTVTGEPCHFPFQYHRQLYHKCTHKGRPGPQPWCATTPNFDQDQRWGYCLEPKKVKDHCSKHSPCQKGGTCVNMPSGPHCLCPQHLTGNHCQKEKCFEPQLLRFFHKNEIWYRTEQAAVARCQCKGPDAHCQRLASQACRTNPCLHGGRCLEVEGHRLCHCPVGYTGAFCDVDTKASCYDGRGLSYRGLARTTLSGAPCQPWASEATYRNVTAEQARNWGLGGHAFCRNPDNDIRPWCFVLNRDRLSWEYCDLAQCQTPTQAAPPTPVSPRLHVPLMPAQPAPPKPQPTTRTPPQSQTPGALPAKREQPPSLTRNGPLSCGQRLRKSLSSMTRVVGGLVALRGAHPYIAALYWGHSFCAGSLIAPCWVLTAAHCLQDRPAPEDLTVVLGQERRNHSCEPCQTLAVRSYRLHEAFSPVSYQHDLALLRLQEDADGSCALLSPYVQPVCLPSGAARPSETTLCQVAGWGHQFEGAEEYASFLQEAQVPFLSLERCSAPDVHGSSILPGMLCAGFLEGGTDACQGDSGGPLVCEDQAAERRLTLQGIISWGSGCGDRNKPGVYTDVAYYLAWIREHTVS", "experiment": "FXIIa inhibitor potency, concentration-response, biochemical (AID 716)", "format": "functional"}, "[5]": {"experiment": "inhibitors of intracellular T. cruzi replication, confirmation, NIH3T3 host cells, beta-gal luminescence (AID 2044);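 also: luminescent beta-galactosidase reporter signal from transgenic T. cruzi replicating inside host cells; inhibitors lower the luminescence signal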", "format": "functional, cell-based"}, "[6]": {"experiment": "cytotoxicity toward NIH3T3 fibroblasts, dose response, counter-screen, cell-based, ATP luminescence, mouse fibroblasts (AID 2010);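 also: cells exposed to compound for about 90 hours before reading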", "format": "functional"}, "[7]": {"molecular_target": "Trypsin (Sus scrofa, UniProt P00761)", "sequence (P00761 whole entry)": "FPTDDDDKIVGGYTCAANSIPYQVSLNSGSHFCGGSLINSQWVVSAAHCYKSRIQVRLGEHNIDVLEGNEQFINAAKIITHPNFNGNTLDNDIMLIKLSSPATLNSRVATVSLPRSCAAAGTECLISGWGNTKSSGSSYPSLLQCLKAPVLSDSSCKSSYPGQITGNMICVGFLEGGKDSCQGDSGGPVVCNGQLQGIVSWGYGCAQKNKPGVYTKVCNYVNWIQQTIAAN", "experiment": "porcine trypsin inhibitors, dose response, selectivity assay for Rce1 protease inhibitor project, biochemical, quenched peptide fluorescence, cherry-pick (AID 488789)"}, "[8]": {"molecular_target": "T3, Tyrosine-protein phosphatase non-receptor type 7 (Homo sapiens, UniProt P35236)", "T3 sequence (P35236 whole entry)": "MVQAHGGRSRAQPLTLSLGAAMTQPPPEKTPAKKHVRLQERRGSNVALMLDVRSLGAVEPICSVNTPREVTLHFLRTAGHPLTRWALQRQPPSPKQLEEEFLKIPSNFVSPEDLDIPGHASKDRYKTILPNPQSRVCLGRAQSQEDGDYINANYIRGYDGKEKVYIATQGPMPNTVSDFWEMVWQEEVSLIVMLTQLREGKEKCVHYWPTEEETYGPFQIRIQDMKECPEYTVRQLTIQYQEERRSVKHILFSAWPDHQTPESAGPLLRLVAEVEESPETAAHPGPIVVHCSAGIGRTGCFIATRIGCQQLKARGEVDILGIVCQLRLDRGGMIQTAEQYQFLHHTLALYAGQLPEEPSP", "experiment": "SAR analysis of chemical inhibitors of HePTP using a Fluorescent assay - Set 2. [Related pubchem assays (depositor defined):AID1059, AID1077, AID1661, AID2085, AID521]", "format": "functional"}, "[9]": {"molecular_target": "Dual specificity protein phosphatase 3 (Homo sapiens, UniProt P51452)", "sequence (P51452 whole entry)": "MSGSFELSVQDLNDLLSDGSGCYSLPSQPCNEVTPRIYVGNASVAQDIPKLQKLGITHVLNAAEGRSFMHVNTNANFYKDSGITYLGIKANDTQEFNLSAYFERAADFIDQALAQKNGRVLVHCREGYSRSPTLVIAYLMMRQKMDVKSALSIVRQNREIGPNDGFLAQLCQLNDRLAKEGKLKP", "experiment": "SAR VHR1 Fluorescent Assay for In Vitro dose response studies Set 2. [Related pubchem assays (depositor defined):AID1654, AID1661, AID1878]", "format": "functional"}, "[10]": {"experiment": "Luminescence Cell-Based Dose Response HTS to Identify Inhibitors of 5'UTR Stem-Loop Driven Prion Protein mRNA Translation in H4 Neuroglioblastoma Cells. [Related pubchem assays: 1827 (Project Summary), 1813 (Primary HTS)]", "format": "functional"}, "[11]": {"experiment": "Luminescence Cell-Based Dose Response HTS to Identify Activators of 5'UTR Stem-Loop Driven Prion Protein mRNA Translation in H4-C Neuroglioblastoma Cells. [Related pubchem assays: 1829 (Project Summary), 1814 (Primary HTS)]", "format": "functional"}, "[12]": {"experiment": "inhibitors of SNCA 5'UTR-driven reporter translation, confirmation, H4 neuroglioma cells, luminescence (AID 1988)", "format": "functional, cell-based"}, "[13]": {"experiment": "cytotoxicity in HEK-293T cells, dose response, cytotoxicity control for TCR NF-kB inhibitor project, luminescence, T-cell screen hits (AID 489026);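 also: cells exposed to compound about 14 hours before the viability readout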", "format": "functional, cell-based"}, "[14]": {"experiment": "Luminescence Cell-Based Dose Response HTS to Identify Activators of Luciferase Translation or Activity in H4-C Neuroglioblastoma Cells. [Related pubchem assays: 1829 (Project Summary), 1814 (Primary HTS)]", "format": "functional"}, "[15]": {"experiment": "Luminescence Cell-Based Dose Confirmation HTS to Identify Inhibitors of 5'UTR Stem-Loop Driven Alpha-Synuclein mRNA Translation in H4 Neuroglioblastoma Cells. [Related pubchem assays: 1827 (Project Summary), 1813 (Primary HTS)]", "format": "functional"}, "[16]": {"experiment": "inhibitors of firefly luciferase expression or activity, dose response, H4 neuroglioma cells, luminescence (AID 1990)", "format": "functional, cell-based"}, "[17]": {"experiment": "Luminescence Cell-Based Dose Retest to Confirm Activators of 5'UTR Stem-Loop Driven Alpha-Synuclein mRNA Translation in H4 Neuroglioblastoma Cells. [Related pubchem assays (depositor defined):AID1813, AID1829]", "format": "functional"}, "[18]": {"experiment": "Luminescence Cell-Based Dose HTS Response to Identify Inhibitors of 5'UTR Stem-Loop Driven Prion Protein mRNA Translation in H4-C Neuroglioblastoma Cells. [Related pubchem assays (depositor defined):AID1814, AID1827]", "format": "functional"}, "[19]": {"molecular_target": "Cytochrome P450 2C9 (Homo sapiens, UniProt P11712)", "sequence (P11712 whole entry)": "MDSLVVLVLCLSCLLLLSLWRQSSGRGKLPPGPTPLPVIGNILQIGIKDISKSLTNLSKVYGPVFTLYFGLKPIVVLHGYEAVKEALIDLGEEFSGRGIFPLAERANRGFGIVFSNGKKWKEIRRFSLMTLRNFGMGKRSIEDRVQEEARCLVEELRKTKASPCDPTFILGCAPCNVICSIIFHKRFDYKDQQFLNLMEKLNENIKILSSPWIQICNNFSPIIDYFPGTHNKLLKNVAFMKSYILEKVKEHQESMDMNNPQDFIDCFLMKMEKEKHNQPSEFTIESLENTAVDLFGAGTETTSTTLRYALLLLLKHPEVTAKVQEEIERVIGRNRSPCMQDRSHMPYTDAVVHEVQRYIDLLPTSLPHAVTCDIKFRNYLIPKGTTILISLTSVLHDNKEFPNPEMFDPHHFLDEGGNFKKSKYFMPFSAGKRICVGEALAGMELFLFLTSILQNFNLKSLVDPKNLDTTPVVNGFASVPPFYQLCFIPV"}, "[20]": {"experiment": "Luminescence Cell-Based Dose Response HTS to Identify Inhibitors of Luciferase Translation or Activity in H4-C Neuroglioblastoma Cells. [Related pubchem assays: 1813 (Primary HTS), 1827 (Project Summary)]", "format": "functional"}}, "note": "The source made the active and inactive calls.", "data": [{"smiles": "CC(Oc1ccc(Br)cc1)C(=O)Nc1cc(Cl)ccc1N1CCN(C)CC1", "note": "(stereo not given)", "values": [{"measurement": "IC50", "setting": "[1]", "value": "3.15 µM (active)"}, {"measurement": "IC50", "setting": "[2]", "value": "4.26 µM (active)"}]}, {"smiles": "COc1ccc(C)cc1NC(=O)CCC(=O)Nc1ccc2nc(N3CCN(C)CC3)cc(C)c2c1", "values": [{"measurement": "AC50", "setting": "[3]", "value": "16.4 µM (active)"}, {"measurement": "IC50", "setting": "[4]", "value": "> 50 µM (inactive)"}, {"measurement": "EC50", "setting": "[5]", "value": "0.635 µM (active)"}, {"measurement": "EC50", "setting": "[6]", "value": "8.73 µM (active)"}, {"measurement": "AC50", "setting": "[7]", "value": "19.7 µM (active)"}]}, {"smiles": "COc1cc(C(=S)NCc2ccc(F)cc2)ccc1O", "values": [{"measurement": "IC50", "setting": "[8]", "value": "> 100 µM (inactive)"}, {"measurement": "IC50", "setting": "[9]", "value": "99.5 µM (inactive)"}]}, {"smiles": "O=C(COc1ccccc1-c1ccccc1)N/N=C/c1cccc2ccccc12", "values": [{"measurement": "EC50", "setting": "[10]", "value": "> 120 µM (not active)"}, {"measurement": "EC50", "setting": "[11]", "value": "0.695 µM (inconclusive)"}, {"measurement": "EC50", "setting": "[12]", "value": "< 0.195 µM (active)"}, {"measurement": "IC50", "setting": "[13]", "value": "> 80 µM (inactive)"}, {"measurement": "EC50", "setting": "[14]", "value": "0.921 µM (inconclusive)"}, {"measurement": "EC50", "setting": "[15]", "value": "1.74 µM (active)"}, {"measurement": "EC50", "setting": "[16]", "value": "11.5 µM (active)"}, {"measurement": "EC50", "setting": "[17]", "value": "1.84 µM (inconclusive)"}, {"measurement": "EC50", "setting": "[18]", "value": "1.76 µM (active)"}, {"measurement": "AC50", "setting": "[19]", "value": "20 µM (inconclusive)"}, {"measurement": "EC50", "setting": "[20]", "value": "0.85 µM (active)"}]}]}
